Data published in patent publication US10993986B2, “Pharmaceutical constructs with enhanced binding affinity with albumin” (Immunwork Inc., priority 2017, dated 2021).
Starred links: 1 amine or outer side, 2 acyl side, 3 side chain; linkers in the order of their positions; H or OH if unused. Non-standard residues stand in square brackets, D forms with d. Groups on a side chain read outwards from the residue. Primed or numbered codes have the meaning given here. No end group written: not given here. *: point of attachment. alkynylpropionyl = alkynylpropionyl (alkyne-ethyl) group on the N-terminal spacer, reacted by CuAAC with the azide; PEG4′ = PEGylated amino acid with four EG (ethylene glycol) repeats; C16 diacid = O=C(O)CCCCCCCCCCCCCCC(=O)*; γGlu = O=C(O)[C@H](CCC(=O)[*:2])N[*:1]; Palmitoyl = CCCCCCCCCCCCCCCC(=O)*; Azidoacetyl = [N-]=[N+]=NCC(=O)*; Aib = CC(C)(N)C(=O)O

Legend:
[1] = tested on: INS-1 cells; assay: Alamar Blue cell viability / proliferation of INS-1 cells; format: cell-based, rat; conditions: 30 mM glucose, 100 nM, 24, 48 and 72 hours, compared with liraglutide, FIG. 19
Procedure: The cultured INS-1 cells were seeded at a density of 2×10^4 cells/well into 96-well plate in culture medium containing 10% […] bovine serum. After 48 hours, the cells were further incubated for another 24 hours for serum starvation. […] The cells cultured in normal medium being used as a control.
After being incubated for 24, 48 and 72 hours, the cell viability was then determined by Alamar Blue cell viability reagent kit (Invitrogen) in accordance with the manufacturer's instruction.
The cell proliferation ratio (see FIG. 19) was a ratio of the cell viability at multiple time points compared to 0 hour.

[2] = biological target: T1, GLP-1 receptor (Rattus norvegicus, UniProt P32301); assay: GLP-1R-mediated cAMP generation in INS-1 cells (cAMP ELISA kit); format: cell-based; conditions: 100 nM, 2.5 mM glucose, 20 min, 37° C., FIG. 17
T1 construct: endogenous in cells; host or cells: rat INS-1 cells
T1 sequence (P32301 22-463): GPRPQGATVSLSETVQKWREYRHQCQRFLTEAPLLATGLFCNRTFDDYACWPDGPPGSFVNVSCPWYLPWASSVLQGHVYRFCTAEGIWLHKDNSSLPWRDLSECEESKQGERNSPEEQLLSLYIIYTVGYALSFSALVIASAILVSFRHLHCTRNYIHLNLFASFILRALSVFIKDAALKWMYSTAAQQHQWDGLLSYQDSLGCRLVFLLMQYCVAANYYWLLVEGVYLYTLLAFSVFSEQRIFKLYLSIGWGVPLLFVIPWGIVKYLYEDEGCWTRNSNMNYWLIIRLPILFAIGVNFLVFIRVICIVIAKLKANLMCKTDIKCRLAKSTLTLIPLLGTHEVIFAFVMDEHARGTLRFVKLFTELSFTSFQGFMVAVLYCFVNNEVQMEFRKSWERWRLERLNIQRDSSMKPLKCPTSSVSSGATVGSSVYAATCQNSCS
Procedure: Briefly, on day one, 2×10^5 INS-1 cells were plated in each well of a 24-well plate (ThermoFisher Scientific, Waltham, USA) with 500 μL/well culture medium. […] 100 nM liraglutide, as a positive control for cAMP generation, was added to control wells and incubated for 20 min at 37° C. Glucose at lower concentration (2.5 mM) was used as a negative control, and glucose at higher concentration (16 mM) was used as a control for glucose-induced cAMP generation. After 20 minutes of incubation, the medium was aspirated and 200 μl of 0.1N HCl was added to each well. The cells were scraped off from the surface by cell scraper and subjected to centrifugation at 1,000×g for 10 min at 4° C. The supernatant was transferred to new tubes and used for experiment in a 96-well plate. Cyclic AMP levels in the cells were measured at wavelength of 420 nm using SpectraMax M2 microplate reader (Molecular devices, San Jose, USA).

[3] = tested on: caspase-3; assay: Western blot of activated caspase-3 expression in INS-1 cells; format: cell-based, rat; conditions: xx mM glucose, normalized against β-actin, FIGS. 18A/18B
Description: Cleaved caspase-3 is a key executor in the apoptotic process. In this example, the expression of caspase-3 was detected using western blot analysis.
For the immunoblot analysis, proteins were separated using SDS-PAGE, and then transferred onto a polyvinylidene fluoride (PVDF) membrane. The membrane was probed using antibodies against caspase-3 (Cell Signaling Technology, Danvers, USA), followed by horseradish peroxidase-(HRP) conjugated secondary antibodies (Epitomics, Burlingame, USA). The membrane was visualized using an enhanced chemiluminescence system (GE Healthcare Life Sciences, Buckinghamshire, USA). The levels of protein expression were normalized against β-actin expression.

[4] = in vivo; cited from earlier work

Substance	cell viability (cell proliferation ratio vs 0 hour) [1]	cellular cAMP level [2]	expression level of caspase-3 [3]	serum half-life [4]
GLP-1-Aib^8-EG4-2E-2FA-C16-acid: Aib-substituted GLP-1 agonist having an azide group coupled via CuAAC to alkyne-EG4-2E-2FA-C16-acid (Example 11) (peptide H[Aib]EGTFTSDVSSYLEGQAAK([γGlu-Azidoacetyl])LEFIAWLVRGRG; chain alkynylpropionyl-[PEG4′]K([γGlu-C16 diacid])[PEG4′]K([γGlu-C16 diacid])-OMe; also: triazole at chain A 20 to a chain's N-terminus)	significantly improved	elicited the expected rise in cellular cAMP level		
GLP-1-Aib^8-EG4-2E-2FA-C16: Aib-substituted GLP-1 agonist having an azide group coupled via CuAAC to alkyne-EG4-2E-2FA-C16 (Example 10) (peptide H[Aib]EGTFTSDVSSYLEGQAAK([γGlu-Azidoacetyl])LEFIAWLVRGRG; chain alkynylpropionyl-[PEG4′]K([γGlu-Palmitoyl])[PEG4′]K([γGlu-Palmitoyl])-OMe; also: triazole at chain A 20 to a chain's N-terminus)	significantly improved	elicited the expected rise in cellular cAMP level	can effectively reduce the expression level of caspase-3	
albiglutide				96 to 170 h
